pKi: −log10 of the molar value.
Assay: Inhibition of [35S]GTP-gamma-S, binding in guinea pig caudate stimulated by SNC80 (Opioid receptor delta 1)

Work on `C[C@H]1C2CCCC1(c1cccc(O)c1)CCN2CCc1ccccc1` (stereo partly drawn) [3-((R)-9-Methyl-2-phenethyl-2-aza-bicyclo[3.3.1]non-5-yl)-phenol] yielded a pKi of 7.89.
